{"source": "patent EP0492930A2", "about": "“Transdermal delivery of dobutamine” (ELI LILLY AND COMPANY, priority 1990, dated 1992)", "system": "male beagle dogs", "assay": "In vivo transdermal delivery: cardiac contractility change in anesthetized dogs", "method": "To corroborate the in vitro results obtained using formulations of the present invention, the ability of the present formulation to provide transdermal delivery of dobutamine lactobionate through the skin of a living dog was also studied.\nTwo male beagle dogs were anesthetized with 100 mg/kg of sodium phenobarbitol and prepared for monitoring of electrocardiogram, contractile tension, heart rate and mean arterial pressure. Dobutamine lactobionate was administered by an i.v. bolus (4, 8 and 16 mcg/kg). After each animal's response returned to baseline, 1.0 ml of a formulation containing 218.9 mg of dobutamine lactobionate (100 mg equivalents of dobutamine free base), 2.0 mg of sodium bisulfite, 10.0 mg of n-decyl methyl sulfoxide in 1 ml of water was applied to a 25 cm² shaved area in the groin-abdominal region of each dog. Cardiac contractility changes in each dog were then monitored for the next 3 to 5 hours.\nColumn 2 discloses the time elapsed from the time the formulation was applied and Column 3 discloses the percent change in contractility (from baseline) observed at the time value shown in Column 2.", "data": [{"smiles": "CC(CCc1ccc(O)cc1)NCCc1ccc(O)c(O)c1", "note": "(racemic) [dobutamine lactobionate, (±)-N-[3-(4-hydroxyphenyl)-1-methylpropyl]-2-(3,4-dihydroxyphenyl)ethylamine]", "values": [{"measurement": "% Change In Contractility", "setting": "Method I (applied directly to skin), 20 min", "result": 30, "unit": "%"}, {"measurement": "% Change In Contractility", "setting": "Method I (applied directly to skin), 30 min", "result": 35, "unit": "%"}, {"measurement": "% Change In Contractility", "setting": "Method I (applied directly to skin), 60 min", "result": 48, "unit": "%"}, {"measurement": "% Change In Contractility", "setting": "Method I (applied directly to skin), 90 min", "result": 21, "unit": "%"}, {"measurement": "% Change In Contractility", "setting": "Method I (applied directly to skin), 120 min", "result": 16, "unit": "%"}, {"measurement": "% Change In Contractility", "setting": "Method I (applied directly to skin), 180 min", "result": 0, "unit": "%"}, {"measurement": "% Change In Contractility", "setting": "Method I (applied directly to skin, covered with plastic film), 10 min, 1.0 ml formulation (218.9 mg lactobionate, 10.0 mg n-decyl methyl sulfoxide) on 25 cm² shaved skin, change from baseline", "result": 16, "unit": "%"}, {"measurement": "% Change In Contractility", "setting": "Method II (cellulose triacetate polymer patch), 10 min, 1.0 ml formulation (218.9 mg lactobionate, 10.0 mg n-decyl methyl sulfoxide), change from baseline", "result": 10, "unit": "%"}, {"measurement": "% Change In Contractility", "setting": "Method II (patch), 20 min", "result": 26, "unit": "%"}, {"measurement": "% Change In Contractility", "setting": "Method II (patch), 30 min", "result": 24, "unit": "%"}, {"measurement": "% Change In Contractility", "setting": "Method II (patch), 60 min", "result": 36, "unit": "%"}, {"measurement": "% Change In Contractility", "setting": "Method II (patch), 90 min", "result": 41, "unit": "%"}, {"measurement": "% Change In Contractility", "setting": "Method II (patch), 120 min", "result": 33, "unit": "%"}, {"measurement": "% Change In Contractility", "setting": "Method II (patch), 150 min", "result": 25, "unit": "%"}, {"measurement": "% Change In Contractility", "setting": "Method II (patch), 180 min", "result": 27, "unit": "%"}, {"measurement": "% Change In Contractility", "setting": "Method II (patch), 210 min", "result": 22, "unit": "%"}, {"measurement": "% Change In Contractility", "setting": "Method II (patch), 240 min", "result": 9, "unit": "%"}, {"measurement": "% Change In Contractility", "setting": "Method II (patch), 270 min", "result": 9, "unit": "%"}, {"measurement": "% Change In Contractility", "setting": "Method II (patch), 300 min", "result": 11, "unit": "%"}]}]}
